The source of these data is EPA's ToxValDB 9.5.

For data set [1], the system named is Mus musculus. The conditions noted are these: uterotrophic, Active.
Data set [2] has as its system Ovis sp. The conditions noted are these: uterotrophic; duration: 14 days; injection; Active.
Data set [3] has as its system Rattus norvegicus. The settings on record: uterotrophic, Active.
The subject of data set [4] is Oryctolagus sp. The conditions noted are these: uterotrophic; duration: 12 days; oral; Active.
Data set [5] deals with Rattus norvegicus. The settings on record: subchronic; duration: 13 weeks; oral; diet; M/F; Fischer 344; Body Weight Changes: decrease + Histopathology: Seminal vesicle-Atrophy Bone-Osteopetrosis Pituitary-Hyperplasia Mammary gland-Ductular ….
For data set [6], the system named is Sus scrofa. The conditions noted are these: reproduction developmental; duration: 15 days; oral; diet; F; Not specified; Increased inter-estrus interval, concentrations of progesterone and prolonged maintenance of corpora lutea.
Setting [7] is: duration: 1 days, injection, subcutaneous.

Regarding `C[C@]12CC[C@@H]3c4ccc(O)cc4CC[C@H]3[C@@H]1C[C@@H](O)[C@@H]2O` [Estriol], the LEL came out at 2.88e-07 mg in data set [1] (duration: 0.17 days, injection, subcutaneous); 0.0761 mg/kg-day in data set [1] (setting [7]); 0.93 mg/kg-day in data set [1] (duration: 3 days, oral); 0.001 mg/day in data set [2]; 0.001 mg/day in data set [3] (duration: 0.125 days, injection, subcutaneous); 0.001 mg/day in data set [3] (duration: 0.25 days, injection, subcutaneous). Moreover, the LEL in data set [3] (duration: 1 days, dermal) stood at 3 mg/L; in data set [3] (duration: 1 days, injection, intraperitoneal) it was 0.001 mg; in data set [3] (duration: 2 days, injection, subcutaneous), 0.01 mg/day; in data set [3] (duration: 3 days, oral) it was 0.09 mg/kg-day. The “LEL (gamma)” value in data set [1] (duration: 3 days, injection, subcutaneous) worked out at 0.04. Further, the “LEL (% (w/w))” value in data set [3] (duration: 2 days, implant) was determined as 40. Besides, in data set [3] (duration: 2 days, implant), the “LEL (pellets)” value was 4. Also, the “LEL (rat units)” value in data set [3] (duration: 5 days) came to 1.

Regarding `C[C@H]1CCCC(=O)CCC/C=C/c2cc(O)cc(O)c2C(=O)O1` [Zearalenone], the LEL in data set [1] (setting [7]) stood at 5 mg/kg-day; in data set [1] (duration: 7 days, oral), 1 mg/kg-day; in data set [1] (oral), 2 mg/kg-day; in data set [4], 1 mg/kg-day; in data set [3] (duration: 3 days, oral), 0.18 mg/day; in data set [3] (duration: 3 days, oral, diet) it was 1 mg/kg-day. The compound also returned an LEL in data set [3] (duration: 8 days, oral) of 1 mg/kg-day. The NOEL in data set [5] was under 2.88 mg/kg-day; in data set [6], 0.04 mg/kg-day. This compound showed an LOEL in data set [6] of 0.2 mg/kg-day.
